In US5968946A, “Heterocyclic derivatives useful in treating central nervous system disorders” (Ortho-McNeil Pharmaceutical, Inc., priority 1998, dated 1999):
Where two headings read alike, the source gives them in different places.

Tests used:
[1] = system: anxiety in the adult male rat; experiment: Suppression of anxiety in the adult male rat (Vogel anticonflict test); format: in vivo; settings: read-out: Anticonflict MED
Protocol: The anxiolytic activity of selected compounds of the invention was assessed by determining their ability to encourage behavior that had been suppressed by punishment (Vogel, J. R. et al. Psychopharmacology 1971, 21, 1). Male rats were deprived of water for 48 hours and were deprived of food for 24 hours prior to testing. After the first 24 hours of water deprivation, they were placed in the conflict chamber for a training period; wherein, they were allowed 200 unpunished licks from a bottle containing tap water. The experiment was run the next day. At the expected time of peak activity, the animals were placed in the chamber and allowed access to tap water. […] Their first lick initiates a 3-min test session. Subsequently,every 20th lick was punished by a 0.2-s shock delivered via the stainless-steel drinking-tube. Vehicle-treated control animals generally were willing to accept a median number of 3 to 8 shocks per test session. […] The Wilcoxon rank-sum test (Mann-WhitneyU-test) was used to test for an increase (p<0.05, 1-tailed) in the median number of shocks in drug-treated groups, compared to a concurrently run vehicle-treated group. The biological assay is considered to be valid if the effects of a known anxiolytic (positive control) are detected, within the same experiment. A compound was considered active if there is a significant difference in the median number of shocks tolerated between the drug-treated group and the control group. The MED was defined as the minimum dose of the drug-treatment as analyzed using the Wilcoxon rank-sum test (SAS; Statistical Analysis System, version 5.16). If the MED value is greater than 10, an active dose of the compound being tested had not been determined.

[2] = system: metrazol-induced convulsions; experiment: Suppression of metrazol-induced convulsions (antimetrazol); format: in vivo, mouse (male CD1); settings: Mus musculus, 0.5 h; IP; clonic convulsions, 30 min observation
Protocol: Selected compounds of the invention were tested for their ability to reduce metrazol-induced convulsions in mice (Swinyard, E. A. J. Am. Pharm Assoc. 1949, 38, 201). Male CD1 mice, were fasted at least 16 hours, were divided into equal groups and test compounds or vehicle were administered parenterally. Water was not withheld except during the period of observations. At the time of suspected peak activity, anti-pentylenetetrazol (anti-metrazol) activity was evaluated by the subcutaneous administration of the CD90 dose of metrazol (the dose of metrazol was determined from the dose-response curve producing clonic convulsions in 90% of animals that received the corresponding vehicle for this experiment). Metrazol was dissolved in 0.9% sodium chloride solution, and its dose volume was 10 ml/kg. Animals were housed individually for observation of clonic convulsions, tonic convulsions and death for a period of 30 min. Test compounds that blocked the clonic seizure component of the convulsion in at least 50% of the animals were considered active. The biological assay was considered to be valid if the effects of a known anticonvulsant (positive control) were detected, within the same experiment. Activity was reported as percent reduction of clonic convulsions from the vehicle group. The ED50 values of active compounds were calculated by the method of probits (Finney, D. J. 1971. Probit Analysis. London: Cambridge University Press) and are listed in Tables 1.

motor coordination = experiment: Horizontal screen test for motor coordination; format: in vivo, mouse (male CD1); settings: Mus musculus, CD1 mice
[3] = system: metrazol-induced convulsions; experiment: Suppression of metrazol-induced convulsions (antimetrazol); format: in vivo, mouse (male CD1); settings: Mus musculus, 0.5 h; PO; clonic convulsions, 30 min observation
[4] = biological target: benzodiazepine site of the GABA-A receptor; experiment: Benzodiazepine receptor binding assay (inhibition of 3H-flunitrazepam binding); settings: read-out: 3H-Flunitrazepam IC50; ca. 3 nM 3H-flunitrazepam, 10-20 min at 25° C.

Compound | minimal effective dose ([1]; IP) | minimal effective dose ([1]; PO) | ED50 [2] | ED50 (motor coordination; IP) | ED50 [3] | IC50 [4] | ED50 (motor coordination; PO)
O=C1CCn2c(nc3cccnc32)C1C(=O)Nc1ccccc1 (stereo not shown) [CP #2, 8,9-Dihydro-7-keto-N-phenyldipyrido [1,2-a:3',2'-d] imidazole-6-carboxamide] | > 10 mg/kg | > 30 mg/kg | > 10 mg/kg | > 10 mg/kg | > 30 mg/kg | > 4350 nM | –
O=C1CCN2C(=C1C(=O)Nc1c(F)cc(F)cc1F)Nc1cccnc12 [CP #4] | > 10 mg/kg | > 30 mg/kg | ~10 mg/kg | ~10 mg/kg | > 30 mg/kg | 1960 nM | –
O=C1CCn2c(nc3ncccc32)C1C(=O)Nc1ccccc1F (stereo not shown) [CP #5, 6,7-dihydro-8-keto-N-(2-fluorophenyl)dipyrido[1,2-a:2',3'-d]imidazole-9-carboxamide] | 10 mg/kg | > 30 mg/kg | 1 mg/kg | 3 mg/kg | 10 mg/kg | 3.5 nM | –
O=C1CCn2c(nc3ncccc32)C1C(=O)Nc1ccccc1 (stereo not shown) [CP #6, 6,7-dihydro-8-keto-N-phenyldipyrido[1,2-a:2',3'-d]imidazole-9-carboxamide] | > 10 mg/kg | 30 mg/kg | 3 mg/kg | 3 mg/kg | < 30 mg/kg | 8.3 nM | –
O=C1CCn2c(nc3ncccc32)C1C(=O)Nc1ccncc1 (stereo not shown) [CP #7, 6,7-dihydro-8-keto-N-(4-pyridyl)dipyrido[1,2-a:2',3'-d]imidazole-9-carboxamide] | 30 mg/kg | 10 mg/kg | > 30 mg/kg | – | > 10 mg/kg | 619 nM | > 10 mg/kg
O=C1CCn2c(nc3ncccc32)C1C(=O)Nc1c(F)cc(F)cc1F (stereo not shown) [CP #8, 6,7-dihydro-8-keto-N-(2,4,6-trifluorophenyl)dipyrido[1,2-a:2',3'-d]imidazole-9-carboxamide] | > 10 mg/kg | > 30 mg/kg | 10 mg/kg | > 30 mg/kg | > 30 mg/kg | 220 nM | –
O=C1CCn2c(nc3ncccc32)C1C(=O)Nc1c(F)cccc1F (stereo not shown) [CP #9, 6,7-dihydro-8-keto-N-(2,6-difluorophenyl)dipyrido[1,2-a:2',3'-d]imidazole-9-carboxamide] | > 10 mg/kg | > 10 mg/kg | ~30 mg/kg | ~10 mg/kg | ~30 mg/kg | 30.1 nM | –
O=C1CCN2C(=C1C(=O)Nc1ccccc1F)Nc1cccnc12 [compound 1] | > 10 mg/kg | > 30 mg/kg | 10 mg/kg | 10 mg/kg | > 30 mg/kg | – | –
O=C1CCN2C(=C1C(=O)Nc1ccncc1)Nc1cccnc12 [compound 3] | > 10 mg/kg | > 30 mg/kg | > 10 mg/kg | > 10 mg/kg | > 30 mg/kg | – | –
O=C1CCN2C(=C1C(=O)Nc1c(F)cccc1F)Nc1cnccc12 [compound 10] | > 10 mg/kg | ~3 mg/kg | > 10 mg/kg | – | > 30 mg/kg | 17.7 nM | –
COCCN1C2=C(C(=O)Nc3ccccc3F)C(=O)CCN2c2ncccc21 [compound 11] | – | > 10 mg/kg | – | – | – | 285 nM | –
CN1C2=C(C(=O)Nc3ccccc3F)C(=O)CCN2c2ncccc21 [compound 12] | – | > 10 mg/kg | – | – | – | > 312 nM | –
